We go through 17 compounds from ChEMBL document CHEMBL1154797, “Synthesis, anti-bacterial and anti-fungal activities of some novel Schiff bases containing 2,4-disubstituted thiazole ring” (2010).

Test [1] deals with Klebsiella pneumoniae. Description: Antibacterial activity against Klebsiella pneumoniae at MIC after 24 hrs by disk diffusion assay. The format is functional.
Test [2] has as its system Klebsiella pneumoniae. The experiment in a line: Antibacterial activity against Klebsiella pneumoniae. Type of test: functional.
The test system of test [3] is Cryptococcus neoformans. The format is functional.
Description: Antifungal activity against Cryptococcus neoformans at MIC after 72 hrs by disk diffusion assay
In test [4] the test system is Aspergillus flavus. The format is functional.
Description: Antifungal activity against Aspergillus flavus at MIC after 72 hrs by disk diffusion assay
For test [5], the system named is Candida tropicalis. The experiment in a line: Antifungal activity against Candida tropicalis. The format is functional.
Test [6] relates to Candida albicans. The experiment in a line: Antifungal activity against Candida albicans. Type of test: functional.
Test [7] deals with Cryptococcus neoformans. The experiment in a line: Antifungal activity against Cryptococcus neoformans. Type of test: functional.
The subject of test [8] is Aspergillus flavus. The experiment in a line: Antifungal activity against Aspergillus flavus. Type of test: functional.
Test [9] relates to Candida albicans. Type of test: functional.
Description: Antifungal activity against Candida albicans at MIC after 72 hrs by disk diffusion assay
Test [10] has as its system Candida tropicalis. Type of test: functional.
Description: Antifungal activity against Candida tropicalis at MIC after 72 hrs by disk diffusion assay
Test [11] concerns Staphylococcus aureus. Description: Antibacterial activity against Staphylococcus aureus. The format is functional.
In test [12] the test system is Staphylococcus aureus. The experiment in a line: Antibacterial activity against Staphylococcus aureus at MIC after 24 hrs by disk diffusion assay. The format is functional.
The test system of test [13] is Vibrio cholerae. The experiment in a line: Antibacterial activity against Vibrio cholerae. The format is functional.
Test [14] deals with Vibrio cholerae. The experiment in a line: Antibacterial activity against Vibrio cholerae at MIC after 24 hrs by disk diffusion assay. The format is functional.
Test [15] concerns Pseudomonas aeruginosa. The experiment in a line: Antibacterial activity against Pseudomonas aeruginosa. Type of test: functional.
The test system of test [16] is Pseudomonas aeruginosa. The experiment in a line: Antibacterial activity against Pseudomonas aeruginosa at MIC after 24 hrs by disk diffusion assay. The format is functional.
Test [17] relates to Salmonella enterica. Description: Antibacterial activity against Salmonella typhi at MIC after 24 hrs by disk diffusion assay. The format is functional, Salmonella enterica subsp. enterica serovar Typhi.
For test [18], the system named is Salmonella enterica. The experiment in a line: Antibacterial activity against Salmonella typhi. Type of test: functional, Salmonella enterica subsp. enterica serovar Typhi.

≈ marks a conversion by molar mass, not a printed value.

Consider `Oc1ccccc1/C=N/Nc1nc(-c2ccc(Br)cc2)cs1`, for which the “diameter of the inhibition zone (DIZ)” value in test [1] is listed as below 10 mm. The compound also had an MIC in test [2] of 50 µg/mL (≈ 134 µM).
As for `Brc1ccc(-c2csc(NN=C3CCCCC3)n2)cc1`, the “diameter of the inhibition zone (DIZ)” value in test [3] was determined as 16 mm; in test [4] it was 16 mm; in test [9], 17 mm; in test [10] it was 14 mm. In addition, the MIC in test [5], in test [6], in [7] and in [8] was 12.5 µg/mL (≈ 35.7 µM) throughout.
As to `Brc1ccc(-c2csc(N/N=C/c3ccccc3)n2)cc1`, the “diameter of the inhibition zone (DIZ)” value in test [3] worked out at 15 mm; in test [4] it was 16 mm; in test [9] it was 15 mm; in test [10] it was 14 mm. Further, the MIC in [5] turned out to be 25 µg/mL (≈ 69.8 µM); in test [6], 12.5 µg/mL (≈ 34.9 µM); in test [7] it was 12.5 µg/mL (≈ 34.9 µM); in test [8] it was 12.5 µg/mL (≈ 34.9 µM).
As for `COc1ccc(-c2csc(N/N=C/c3ccccc3O)n2)cc1`, the “diameter of the inhibition zone (DIZ)” value is 12 mm in test [3], 11 mm in test [9] and 13 mm in test [10]. For the same compound, the MIC in [5], in test [6] and in test [7] was 25 µg/mL (≈ 76.8 µM) throughout.
On to `COc1ccc(-c2csc(N/N=C/c3ccc(OC)c(OC)c3)n2)cc1`, for which inhibition of growth in [11] (MIC) required 50 µg/mL (≈ 135 µM). The “diameter of the inhibition zone (DIZ)” value in test [12] is below 10 mm.
For `Brc1ccc(-c2csc(N/N=C/c3c[nH]c4ccccc34)n2)cc1`, in [3], the “diameter of the inhibition zone (DIZ)” value worked out at 13 mm. In [7], this compound registered an MIC of 25 µg/mL (≈ 62.9 µM).
Take `COc1ccc(/C=N/Nc2nc(-c3ccc(OC)cc3)cs2)cc1`: it took 50 µg/mL (≈ 147 µM) to inhibit growth in [11] (MIC). Moreover, the “diameter of the inhibition zone (DIZ)” value in [12] is below 10 mm.
As to `COc1ccc(-c2csc(NN=C3CCCC3)n2)cc1`, the “diameter of the inhibition zone (DIZ)” value in test [3] stood at 18 mm; in test [4] it was 18 mm; in test [9] it was 17 mm. In addition, the minimum inhibitory concentration (MIC) in test [6], in test [7] and in [8] was 12.5 µg/mL (≈ 43.5 µM) in each case.
For the compound `Fc1ccccc1/C=N/Nc1nc(-c2ccc(Br)cc2)cs1`, the “diameter of the inhibition zone (DIZ)” value in test [1] was below 10 mm. Besides, the minimal inhibitory concentration (MIC) in test [2] came out at 50 µg/mL (≈ 133 µM).
For `Brc1ccc(-c2csc(NN=C3CCCC3)n2)cc1`, the “diameter of the inhibition zone (DIZ)” value is 14 mm in test [3], 15 mm in test [4], 19 mm in test [14] and 16 mm in test [9]. Moreover, the minimum inhibitory concentration (MIC) in test [13] was 6.25 µg/mL (≈ 18.6 µM); in [6], 12.5 µg/mL (≈ 37.2 µM); in [7] it was 12.5 µg/mL (≈ 37.2 µM); in test [8] it was 12.5 µg/mL (≈ 37.2 µM).
With `COc1ccc(-c2csc(N/N=C/c3ccccc3)n2)cc1`, the “diameter of the inhibition zone (DIZ)” value in test [3] amounted to 14 mm; in test [4], 13 mm; in test [9], 13 mm. For the same compound, the minimum inhibitory concentration (MIC) in test [6], in test [7] and in test [8] was 12.5 µg/mL (≈ 40.4 µM) throughout.
For `COc1ccc(-c2csc(N/N=C/c3ccc(O)cc3O)n2)cc1`, 50 µg/mL (≈ 146 µM) was the least that counted as inhibitory in test [15] (MIC). Besides, in test [16], the “diameter of the inhibition zone (DIZ)” value is given as below 10 mm.
Regarding `COc1ccc(-c2csc(N/N=C(\c3ccccc3)C(O)c3ccccc3)n2)cc1` (stereo not given), the “diameter of the inhibition zone (DIZ)” value is reported as 13 mm in [4] and 16 mm in test [14]. In addition, the minimal inhibitory concentration (MIC) in test [13] and in test [8] was 25 µg/mL (≈ 60.2 µM) each time.
`O=C(O)c1cn(C2CC2)c2cc(N3CCNCC3)c(F)cc2c1=O` [CIPROFLOXACIN]: the results for the “diameter of the inhibition zone (DIZ)” value in test [1], in test [12] and in [17] were 23 mm, 25 mm and 18 mm, respectively. Also, the MIC in test [2] and in test [18] was 6.25 µg/mL (≈ 18.9 µM) in each case.
In test [11], `COc1ccc(-c2csc(N/N=C/c3cc(OC)c(OC)c(OC)c3)n2)cc1` returned an MIC of 50 µg/mL (≈ 125 µM). Also, the “diameter of the inhibition zone (DIZ)” value in test [12] is given as below 10 mm.
In the case of `OC(Cn1cncn1)(Cn1cncn1)c1ccc(F)cc1F` [FLUCONAZOLE], the “diameter of the inhibition zone (DIZ)” value in [3] stood at 22 mm; in [4] it was 19 mm; in test [9], 22 mm; in test [10], 20 mm. For the same compound, the MIC in test [5], in [6], in test [7] and in [8] was 6.25 µg/mL (≈ 20.4 µM) each time.
As for `OC(/C(=N/Nc1nc(-c2ccc(Br)cc2)cs1)c1ccccc1)c1ccccc1` (stereo not given), the “diameter of the inhibition zone (DIZ)” value turned out to be 21 mm in [3]; 17 mm in test [4]; 17 mm in [12]; 17 mm in test [14]; 19 mm in [9]; 16 mm in test [10]. The MIC in test [11] came out at 12.5 µg/mL (≈ 26.9 µM); in [5], 6.25 µg/mL (≈ 13.5 µM); in test [13], 12.5 µg/mL (≈ 26.9 µM); in test [6], 6.25 µg/mL (≈ 13.5 µM); in [7], 6.25 µg/mL (≈ 13.5 µM); in [8] it was 6.25 µg/mL (≈ 13.5 µM).
